Source: patent EP4748837A1, “AROMATIC AMIDE DERIVATIVE, AND PREPARATION METHOD THEREFOR AND USE THEREOF” (Zhejiang Hisun Pharmaceutical Co., Ltd., priority 2023, dated 2025)
Like-named read-outs stand apart in the source and are kept apart here.

Legend:
HT-29 cells = test: Inhibition of HT-29 cell proliferation (CellTiter-Glo cell viability); assay type: cell-based; conditions: Homo sapiens
Protocol: (§1) Influences of the compounds of the present invention on HT-29 cell proliferation were determined by the following method. HT-29 cells (containing TP53 R273H mutation) were purchased from the Cell Bank of Shanghai Institute of Biochemistry and Cell Biology, Chinese Academy of Sciences, and cultured in a McCOY's 5A culture medium containing 10% fetal bovine serum, 100 U penicillin and 100 µg/mL streptomycin. A cell viability was determined by a CellTiter-Glo® Luminescent Cell Viability Assay kit (Promega, article number G7573).
(§2) An experimental method was operated according to steps in the instruction of the kit, which was briefly described as follows: a test compound was dissolved in DMSO first to prepare a 10 mM stock solution, then the stock solution was diluted with the culture medium to prepare a test sample, and a final concentration of the compound was in a range of 1000 nM-0.015 nM. Cells in a logarithmic growth phase were inoculated into a 96-well cell culture plate at a density of 1000 cells per well, cultured in a 5% CO2 incubator at 37°C overnight, and then the test compound was added to continuously culture for 120 hours. After the culture was ended, 50 uL of CellTiter-Glo detection solution was added to each well, shaken for 5 minutes, and then allowed to stand for 10 minutes, and subsequently, a luminance value of each well of the sample was read by a microplate reader in a Luminescence mode. By comparing with the numerical value of a control group (0.3% DMSO), a percentage inhibition rate of the compound at each concentration point was calculated, and then nonlinear regression analysis was carried out based on concentration logarithm-inhibition rate of the compound in GraphPad Prism 5 software, so as to obtain an IC50 value of the compound for inhibiting the cell proliferation, which was as shown in Table 2. Table 2 IC50 data of the compounds of the present invention for inhibiting HT-29 cell proliferation

recombinant human KIF18A = molecular target: T1, recombinant human KIF18A (Homo sapiens, UniProt Q8NI77); test: Inhibition of KIF18A enzyme activity (ADP-Glo assay); assay type: biochemical; conditions: recombinant human KIF18A 100 nM, ATP 60 µM, tubulin, paclitaxel
T1 construct: purchased GenScript
T1 sequence (Q8NI77 whole entry): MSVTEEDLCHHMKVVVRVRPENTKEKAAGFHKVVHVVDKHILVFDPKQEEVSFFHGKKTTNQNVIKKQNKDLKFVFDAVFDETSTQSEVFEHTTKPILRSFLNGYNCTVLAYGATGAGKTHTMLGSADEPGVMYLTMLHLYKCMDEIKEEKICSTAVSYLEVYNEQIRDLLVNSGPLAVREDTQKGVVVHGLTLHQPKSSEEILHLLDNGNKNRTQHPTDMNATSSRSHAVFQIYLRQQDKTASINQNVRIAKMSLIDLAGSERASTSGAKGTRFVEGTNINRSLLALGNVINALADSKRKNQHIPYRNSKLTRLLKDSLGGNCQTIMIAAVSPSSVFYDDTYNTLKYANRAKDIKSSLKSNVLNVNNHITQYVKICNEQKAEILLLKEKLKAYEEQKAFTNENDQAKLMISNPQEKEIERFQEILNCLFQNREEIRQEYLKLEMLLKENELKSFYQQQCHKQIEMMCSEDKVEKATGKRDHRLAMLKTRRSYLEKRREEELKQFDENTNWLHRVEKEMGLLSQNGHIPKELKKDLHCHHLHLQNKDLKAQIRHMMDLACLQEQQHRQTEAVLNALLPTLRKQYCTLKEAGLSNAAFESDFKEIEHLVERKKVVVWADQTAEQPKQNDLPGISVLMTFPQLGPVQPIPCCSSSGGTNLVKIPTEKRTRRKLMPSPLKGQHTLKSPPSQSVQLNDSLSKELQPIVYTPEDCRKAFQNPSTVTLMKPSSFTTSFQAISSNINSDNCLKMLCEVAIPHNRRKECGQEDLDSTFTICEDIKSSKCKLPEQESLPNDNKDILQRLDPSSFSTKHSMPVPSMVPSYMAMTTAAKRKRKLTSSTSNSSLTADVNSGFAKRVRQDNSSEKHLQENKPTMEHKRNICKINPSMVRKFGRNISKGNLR
T1 sequence (P68363 whole entry partner): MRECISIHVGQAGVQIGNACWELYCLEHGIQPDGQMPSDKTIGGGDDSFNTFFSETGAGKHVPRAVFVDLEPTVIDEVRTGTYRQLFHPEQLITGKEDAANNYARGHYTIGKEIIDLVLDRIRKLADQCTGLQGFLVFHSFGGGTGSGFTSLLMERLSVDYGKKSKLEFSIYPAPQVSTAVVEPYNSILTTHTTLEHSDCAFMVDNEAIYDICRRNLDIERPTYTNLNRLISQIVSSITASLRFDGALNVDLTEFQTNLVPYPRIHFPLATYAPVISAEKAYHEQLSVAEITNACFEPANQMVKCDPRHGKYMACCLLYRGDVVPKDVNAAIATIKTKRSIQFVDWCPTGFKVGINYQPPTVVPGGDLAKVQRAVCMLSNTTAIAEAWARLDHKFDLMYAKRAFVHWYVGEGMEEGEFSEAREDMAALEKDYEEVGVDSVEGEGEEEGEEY
T1 sequence (Q9BVA1 whole entry partner): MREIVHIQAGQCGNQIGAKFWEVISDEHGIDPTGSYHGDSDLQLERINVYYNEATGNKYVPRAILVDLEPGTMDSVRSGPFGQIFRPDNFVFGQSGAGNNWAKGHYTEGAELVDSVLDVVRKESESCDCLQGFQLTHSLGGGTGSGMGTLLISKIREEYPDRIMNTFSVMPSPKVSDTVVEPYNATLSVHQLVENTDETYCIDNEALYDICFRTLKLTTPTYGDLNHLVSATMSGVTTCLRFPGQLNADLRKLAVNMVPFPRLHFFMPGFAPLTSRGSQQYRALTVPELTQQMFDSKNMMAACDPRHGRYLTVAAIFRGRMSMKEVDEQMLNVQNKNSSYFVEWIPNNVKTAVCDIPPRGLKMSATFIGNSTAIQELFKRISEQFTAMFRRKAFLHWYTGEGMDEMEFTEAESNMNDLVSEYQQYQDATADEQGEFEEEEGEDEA
Protocol: Inhibition degrees of the compounds of the present invention on recombinant human KIF18A enzyme activity in vitro were determined by the following method. An ADP-Glo™ Kinase Assay kit (article number V9102) from Promega Company was used in this method. Detailed experimental operation referred to the instruction of the kit.
An experimental process was briefly described as follows: a test compound was dissolved in DMSO first to prepare a stock solution, then the stock solution was gradiently diluted with a reaction buffer A ([…], 0.01% Pluronic F-68), and a final concentration of the test compound in the reaction system was in a range of 10000 nM-0.15 nM; and a KIF18A protein and ATP working solution was prepared by using a reaction buffer B (15 mM Tris, pH 7.5, 10 mM MgCl2, 0.01% Pluronic F-68, 37.5 µg/ml tubulin, 1.25 µM paclitaxel). The reaction was carried out in a 384-well microplate. The test compound and the recombinant human KIF18A protein (final concentration of 100 nM, entrusted to GenScript for expression) were added into the wells and incubated at room temperature for 20 minutes, and subsequently, an ATP solution (component V915A from the ADP-Glo™ Kinase Assay kit, final concentration of 60 µM) was added to the reaction solution and the system was incubated at room temperature for 20 minutes. Subsequently, 5 µL of ADP-Glo Reagent was added to the reaction systemand the system was incubated at room temperature for 50 minutes. Then, 10 µL of Kinase Detection Reagent was added to the reaction system and the system was incubated at room temperature for 30 minutes. After the incubation was ended, a chemiluminiscence intensity value of each well was determined by a microplate reader in a Luminescence mode.

OVCAR-3 cells = test: Inhibition of OVCAR-3 cell proliferation (CellTiter-Glo cell viability); assay type: cell-based; conditions: Homo sapiens
Protocol: as §1, with “OVCAR-3” for “HT-29”, “R248Q” for “R273H”, “an RPMI 1640” for “a McCOY's 5A”
as §2, with “for 72” for “for 120”, “each well ,” for “each well,”, “Table 1.” for “Table 2.”, “Table 1” for “Table 2”, “inhibiting OVCAR-3” for “inhibiting HT-29”

[1] = HT-29 cells (TP53 R273H mutation), 120 hours culture with compound, read-out: IC50
[2] = OVCAR-3 cells (TP53 R248Q mutation), 72 hours culture with compound, read-out: IC50

SMILES | IC50 (HT-29 cells; [1]) [nM] | IC50 (recombinant human KIF18A; read-out: IC50) [nM] | IC50 (OVCAR-3 cells; [2]) [nM] | IC50 (HT-29 cells; HT-29, 120 h) [nM] | IC50 (recombinant human KIF18A) [nM] | IC50 (OVCAR-3 cells; OVCAR-3, 72 h) [nM]
O=C(Nc1ccc(-c2nnco2)c(N2CCC(F)(F)CC2)c1)c1ccc(NS(=O)(=O)C2CC2)cc1N1CCC2(CC1)CC2 [Example 41, 4-(cyclopropanesulfonamido)-N-(3-(4,4-difluoropiperidin-1-yl)-4-(1,3,4-oxadiazol-2-yl)phenyl)-2-(6-azaspiro[2.5]octan-6-yl)benzamide] | 1.8 | 155 | 6.2 |  |  | 
CCS(=O)(=O)Nc1ccc(C(=O)Nc2ccc(-c3nnco3)c(OCC(F)(F)F)c2)c(N2CCC3(CC2)CC3)c1 [Example 51, N-(4-(1,3,4-oxadiazol-2-yl)-3-(2,2,2-trifluoroethoxy)phenyl)-4-(ethylsulfonamido)-2-(6-azaspiro[2.5]octan-6-yl)benzamide] |  | 107 | 27.4 |  |  | 
CCS(=O)(=O)Nc1ccc(C(=O)Nc2ccc(-c3nnco3)c(N3CC(F)(F)C3)c2)c(N2CCC3(CC2)CC3)c1 [Example 49, N-(3-(3,3-difluoroazetidin-1-y 1)-4-(1,3,4-oxadiazol-2-yl)phenyl)-4-(ethylsulfonamido)-2-(6-azaspiro[2.5]octan-6-yl)benzamide] | 9.6 | 70.4 | 12.6 |  |  | 
O=C(Nc1ccc(-c2cccnn2)c(N2CCC(F)(F)CC2)c1)c1ccc(NS(=O)(=O)C2CC2)cc1N1CCC2(CC1)CC2 [Example 15, 4-(cyclopropanesulfonamido)-N-(3-(4,4-difluoropiperidin-1-yl)-4-(pyridazin-3-yl)phenyl)-2-(6-azaspiro[2.5]octan-6-yl)b enzamide] | 4.7 | 69.4 | 3.7 |  |  | 
CCS(=O)(=O)Nc1ccc(C(=O)Nc2ccc(-c3ncc[nH]3)c(N3CCC(F)(F)CC3)c2)c(N2CCC3(CC2)CC3)c1 [Example 25, N-(3-(4,4-difluoropiperidin-1-yl)-4-(1H-imidazol-2-yl)pheny 1)-4-(ethylsulfonamido)-2-(6-azaspiro[2.5]octan-6-yl)benzamide] |  |  |  | 2.6 | 33.9 | 3.5
CCS(=O)(=O)Nc1ccc(C(=O)Nc2ccc(-c3nccn3C)c(N3CCC(F)(F)CC3)c2)c(N2CCC3(CC2)CC3)c1 [Example 26, N-(3-(4,4-difluoropiperidin-1-yl)-4-(1-methyl-1H-imidazol-2-yl)phenyl)-4-(ethylsulfonamido)-2-(6-azaspiro[2.5]octan-6-yl)benzamide] | 30.8 | 106 |  |  |  | 
CCS(=O)(=O)Nc1ccc(C(=O)Nc2ccc(-n3cnnc3)c(N3CCC(F)(F)CC3)c2)c(N2CCC3(CC2)CC3)c1 [Example 27, N-(3-(4,4-difluoropiperidin-1-yl)-4-(4H-1,2,4-triazol-4-yl)phenyl)-4-(ethylsulfonamido)-2-(6-azaspiro[2.5]octan-6-yl)benz amide] |  | 30.9 | 8.1 |  |  | 
CCS(=O)(=O)Nc1ccc(C(=O)Nc2ccc(C(=O)O)c(N3CCC(F)(F)CC3)c2)c(N2CCC3(CC2)CC3)c1 [Example 2, 2-(4,4-difluoropiperidin-1-yl)-4-(4-(ethylsulfonamido)-2-(6-azaspiro[2.5]octan-6-yl)benzamido)benzoic acid] |  | 29.5 | 42.9 |  |  | 
CCS(=O)(=O)Nc1ccc(C(=O)Nc2ccc(-n3ccnc3)c(C3(O)CCC(F)(F)CC3)c2)c(N2CCC3(CC2)CC3)c1 [Example 44, N-(3-(4,4-difluoro-1-hydroxycyclohexyl)-4-(1H-imidazol-1-yl)phenyl)-4-(ethylsulfonamido)-2-(6-azaspiro[2.5]octan-6-yl)benzamide] |  | 130 | 45.5 |  |  | 
CCS(=O)(=O)Nc1ccc(C(=O)Nc2ccc(-c3nnc(C)o3)c(OCC(F)(F)F)c2)c(N2CCC3(CC2)CC3)c1 [Example 52, 4-(ethylsulfonamido)-N-(4-(5-methyl-1,3,4-oxadiazol-2-yl)-3-(2,2,2-trifluoroethoxy)phenyl) -2-(6-azaspiro[2.5]octan-6-yl) benzamide] |  | 125 | 17.9 |  |  | 
CCS(=O)(=O)Nc1ccc(C(=O)Nc2ccc(-c3nnn[nH]3)c(N3CCC(F)(F)CC3)c2)c(N2CCC3(CC2)CC3)c1 [Example 33, N-(3-(4,4-difluoropiperidin-1-yl)-4-(1H-tetrazol-5-yl)phenyl)-4-(ethylsulfonamido)-2-(6-azaspiro[2.5]octan-6-yl)benzamide] |  | 3.8 |  |  |  | 
CCS(=O)(=O)Nc1ccc(C(=O)Nc2ccc(-c3nnco3)c(OC3CC(F)(F)C3)c2)c(N2CCC3(CC2)CC3)c1 [Example 50, N-(3-(3,3-difluorocyclobutoxy)-4-(1,3,4-oxadiazol-2-yl)phenyl)-4-(ethylsulfonamido)-2-(6-azaspiro[2.5]octan-6-yl)benzamide] |  | 74.3 | 19.1 |  |  | 
CCS(=O)(=O)Nc1ccc(C(=O)Nc2ccc(-c3nnnn3C)c(N3CCC(F)(F)CC3)c2)c(N2CCC3(CC2)CC3)c1 [Example 34, N-(3-(4,4-difluoropiperidin-1-yl)-4-(1-methyl-1H-tetrazol-5-yl)phenyl)-4-(ethylsulfonamido)-2-(6-azaspiro[2.5]octan-6-yl)benzamide] |  | 90 | 49.8 |  |  | 
CCS(=O)(=O)Nc1ccc(C(=O)Nc2ccc(-n3ccnc3)c(N3CCC(C)(O)CC3)c2)c(N2CCC3(CC2)CC3)c1 [Example 42, 4-(ethylsulfonamido)-N-(3-(4-hydroxy-4-methylpiperidin-1-yl)-4-(1H-imidazol-1-yl)pheny 1)-2-(6-azaspiro[2.5]octan-6-yl)benzamide] |  | 88 |  |  |  | 
CCS(=O)(=O)Nc1ccc(C(=O)Nc2ccc(-c3ncc[nH]3)c(N3CCC(C)(O)CC3)c2)c(N2CCC3(CC2)CC3)c1 [Example 43, 4-(ethylsulfonamido)-N-(3-(4-hydroxy-4-methylpiperidin-1-yl)-4-(1H-imidazol-2-yl)pheny 1)-2-(6-azaspiro[2.5]octan-6-yl)benzamide] |  | 115 | 18.8 |  |  | 
CCS(=O)(=O)Nc1ccc(C(=O)Nc2ccc(-c3ccnnc3)c(OC3CC(F)(F)C3)c2)c(N2CCC3(CC2)CC3)c1 [Example 48, N-(3-(3,3-difluorocyclobutoxy)-4-(pyridazin-4-yl)phenyl)-4-(ethylsulfonamido)-2-(6-azaspiro[2.5]octan-6-yl)benzamide] |  | 102 | 14.4 |  |  | 
